The values that follow come from article PMC8196563, “Trichilones A–E: New Limonoids from Trichilia adolfi” (Molecules, 2021).

Data set [1] deals with L. braziliensis promastigotes. The data set can be described thus: In vitro leishmanicidal activity against promastigotes. The data set is classed as cell-based. The note with it: Leishmania braziliensis, 72 h, read-out: Leishmanicidal activity L.b, IC50. On the procedure:
(§1) Leishmanicidal activity was assayed according to Williams, with some modi-fication. Promastigotes of Leishmania: L. amazonensis, Clone 1, NHOM-BR-76-LTB-012 (Lma, donated by the Paul Sabatier Université, France) and L. braziliensis M2904 C192 RJA (M2904, donated by Dr. Jorge Arévalo from Universidad Peruana Cayetano Heredia, Peru). The strains were cultured in Schneider’s insect medium (pH 6.2), supplemented with 10% FBS and incubated in 96-microwell plates at 26 °C. Briefly, promastigotes in logarithmic phase of growth, at concentration of […], were exposed to samples dissolved in DMSO (1%) at different concentrations (3.1–100 μg/mL). Miltefosine (3.1–100 μg/mL, IDPS, France) was used as a positive control drug. The microwell plates were incubated for 72 h at 26 °C, the optical density of each well was measured and the IC50 values calculated. All assays were performed in triplicate.

In data set [2] the test system is Leishmania amazonensis promastigotes. The data set is described as above. The data set is classed as cell-based. The conditions noted are these: 72 h, read-out: Leishmanicidal activity L.a, IC50. On the procedure:
as §1

Data set [3] is described as follows: Cytotoxicity in murine macrophage cells (resazurin). It is filed as cell-based. The note with it: mouse, Raw 264.7 macrophage cells, Raw 264.7 murine macrophage cells, triplicate. On the procedure: The Raw 264.7 murine macrophage cell line was purchased from the American Type Culture Collection (ATCC-TIB71) (Manassas, VA, USA). The cells were maintained in DMEM-HG medium supplemented with 10% fetal bovine serum, 100 U/mL of penicillin and 100 μg/mL of streptomycin and sodium bicarbonate (2.2 g/L) in humidified atmosphere at 37 °C with 5% CO2. Samples were prepared as described above and added (in […]) at different concentrations (6.2–200 μg/mL). Medium blank, control drugs and cell growth controls were included to evaluate cell viability. The plates were incubated for 72 h at 37 °C with 5% CO2. After incubation for the indicated time, the cells were washed, after which 10 μL of Resazurin reagent (2.0 mM) was added. They were further incubated at 37 °C for 3 h in a humidified incubator. The IC50 values were assessed using a fluorometric reader (540 nm excitation, 590 nm emission) and Gen5 software. All assays were performed in triplicate.
Background: Alamar Blue is a resazurin reagent that responds to reducing activity.

Setting [4] is: L. braziliensis M2904 C192 RJA promastigotes, 26 °C, triplicate.
The mark [5] stands for this setting: L. amazonensis Clone 1 NHOM-BR-76-LTB-012 promastigotes, 26 °C, triplicate.

Structures are written as SMILES. In brackets after ≈: the same amount, converted by molar mass. Where two headings read alike, the source gives them in different places.

By IC50 is commonly meant the concentration at which inhibition is half-maximal. Regarding `CCCCCCCCCCCCCCCCOP(=O)([O-])OCC[N+](C)(C)C` [Miltefosine, reference compound], the IC50 came out at 4.07 ± 0.5 µg/mL (≈ 9.99 µM) in data set [1] (setting [4]) and 5 ± 0.2 µg/mL (≈ 12.3 µM) in data set [2] (setting [5]). In addition, the 50% inhibitory concentration (IC50) at 72 h in data set [3] was 21 ± 2 µg/mL (≈ 51.5 µM).

Take `CCC(C)C(=O)OC1C(OC(C)=O)C2(C)C(c3ccoc3)CC(=O)C2C2(C)OC3CC(=O)OC(C)(C)C(CC(=O)OC)C3(C)C12` (stereo not drawn) [Compound 2, Trichilone B]: the results for the half-inhibitory concentration (IC50) in data set [1] (setting [4]) and in data set [2] (setting [5]) were 70.1 ± 3 µg/mL (≈ 111 µM) and over 100 µg/mL, respectively. In data set [3], this compound gave an IC50 at 72 h of 30 ± 10 µg/mL (≈ 47.6 µM).

Consider `COC(=O)CC1C(C)(C)OC(=O)C=C2OC3(C)C(C(OC(=O)C(C)C)C(OC(C)=O)C4(C)C(c5ccoc5)CC(=O)C34)C21C` (stereo not drawn) [Compound 5, Trichilone E], for which the results for the IC50 in data set [1] (setting [4]) and in data set [2] (setting [5]) were 68.1 ± 6 µg/mL (≈ 111 µM) and 92 ± 7 µg/mL (≈ 150 µM), respectively. Inhibition in data set [3] was half-maximal at 41.5 ± 24 µg/mL (≈ 67.5 µM) (IC50 at 72 h).

Turning to `COC(=O)CC1C(C)(C)OC(=O)C=C2OC3(C)C(C(OC(C)=O)C(OC(C)=O)C4(C)C(c5ccoc5)CC(=O)C34)C21C` (stereo not drawn) [Compound 4, Trichilone D], the IC50 in data set [1] (setting [4]) is 98.5 ± 1.5 µg/mL (≈ 168 µM); in data set [2] (setting [5]), over 100 µg/mL. This compound displayed an IC50 at 72 h in data set [3] of 94.1 ± 4.2 µg/mL (≈ 160 µM).

For orientation: melting point means the temperature, or range, at which the solid turns liquid. `COC(=O)CC1C(C)(C)OC(=O)CC2OC3(C)C4C(=O)CC(c5ccoc5)C4(C)C(OC(C)=O)C(OC(=O)C(C)C)C3C21C` (stereo not drawn) [Compound 1, Trichilone A] gave a melting point of 143 °C. Besides, the IC50 in data set [1] (setting [4]) was determined as 58 ± 18 µg/mL (≈ 94 µM). Moreover, in data set [3], half-maximal inhibition (IC50 at 72 h) was put at 42 ± 0.9 µg/mL (≈ 68.1 µM).

As for `CCC(C)C(=O)OC1C(OC(C)=O)C2(C)C(c3ccoc3)CC(=O)C2C2(C)OC3CC(=O)OC(C)(C)C(CC(=O)OC)C3(C)C12O` (stereo not drawn) [Compound 3, Trichilone C], the results for the IC50 in data set [1] and in data set [2] were 87.2 ± 13 µg/mL (≈ 135 µM) and over 100 µg/mL, respectively. 60 ± 17 µg/mL (≈ 92.8 µM) corresponded to half-maximal inhibition in data set [3] (IC50 at 72 h).
